The test system of assay [1] is MM1 cells. The settings on record: Int. J. Cancer 81, 918-922 (1999), cited from earlier work; for suppressed LPA-induced invasion by: studied by Mukai et al.; for invasion suppressing action on LPA-induced invasion (in words): reported by Mukai et al.
In assay [2] the test system is MM1 cells. Description: Effect on the proliferation of MM1 cells. The format is cell-based, rat. Conditions: 12.5 μM or 25 μM cPA, 10% FBS, 24 hours and 72 hours. Here is the method: 12.5 μM and 25 μM cPA were added to media containing 10% FBS, and then the cells were cultured under conditions of 37° C. and 5% CO2 for 24 hours and 72 hours. The number of the MM1 cells was counted using a hemocytometer.

Assay [3] concerns MM1 cells. Description: In vitro invasion assay, LPA-induced invasion of MM1 cells across mesothelial cell monolayer. It counts as cell-based, rat. Conditions: 25 μM cPA derivative, 25 μM LPA, 20 hours. Here is the method: (§1) The abdomen of a male DONRYU rat (300 g, NIPPON BIO-SUPP. CENTER) was opened aseptically. The thus obtained mesenterium was treated with 0.25% trypsin at 37° C. for 15 minutes, filtrated with a 150 μm stainless mesh, and then centrifuged to collect mesothelial cells. The cells were cultured under conditions of 37° C. and 5% CO2 in a medium which was obtained by adding 10% FBS to Eagle's MEMI (Nissui) supplemented with Eagle's MEM amino acid vitamin medium (Nissui) in a volume twice as great as that of the MEMI. A mesothelial cell monolayer which had reached a confluent density after 1 week of culturing was used for invasion assay.
(§2) The MM1 cells, which are highly invasive clones of rat ascites hepatoma cells (AH-130), were established by Mukai et al., (Int. J. Cancer : 81, 918-922 (1999)), and was cultured under the same conditions as those for mesothelial cells.
In vitro invasion assay was developed by Akedo et al (Akedo, H et al., Cancer Res. 46, 2416-2422 (1986)). MM1 cells were multi-layer-cultured on the mesothelial cell layer, which had been grown to reach a confluent density, in the presence of 10% FBS or 25 μM LPA (SIGMA). 25 μM cPA was then added. The cells were cultured under conditions of 37° C. and 5% CO2 for 20 hours, and then fixed with 10% formalin. The number of colonies of MM1 cells that had invaded was counted under a phase-contrast microscope (FIG. 3).
cPA and LPA were ice-cooled in PBS containing 0.1% fatty-acid free BSA (SIGMA), ultrasonicated, emulsified, stored at −20° C., and then used.
0.5 μM, 1 μM and 10 μM carba-cPA were added to MM1 cells, and then in vitro invasion assay was performed similarly to (1-1) in the presence of 25 μM LPA.
The following reagents were respectively added to an in vitro invasion assay system so as to examine their effects on MM1 cell invasion in the presence of 25 μM LPA: Forskolin (Wako) which directly activates adenylate cyclase (cAMP synthase); cholera toxin (CTX) (GIBCO BRL) which prevent the deactivation of G protein (Gs) which activates adenylate cyclase; Bt2cAMP (nacalai tesque) which can pass through the membrane and functions in a manner similar to that of cAMP when it enters the cell; or isobutylmethylxanthine (IBMX, 3-isobutyl-1-methylxanthine) (SIGMA) which inhibits phosphodiesterase (cAMP degrading enzyme).

Assay [4] deals with MM1 cells. Description: In vitro invasion assay, FBS-induced invasion of MM1 cells. The format is cell-based, rat. The settings on record: 25 μM cPA derivative, 10% FBS, 20 hours. Here is the method:
as §1, §2
In vitro invasion assay was developed by Akedo et al (Akedo, H et al., Cancer Res. 46, 2416-2422 (1986)). MM1 cells were multi-layer-cultured on the mesothelial cell layer, which had been grown to reach a confluent density, in the presence of 10% FBS or 25 μM LPA (SIGMA). 25 μM cPA was then added. The cells were cultured under conditions of 37° C. and 5% CO2 for 20 hours, and then fixed with 10% formalin. The number of colonies of MM1 cells that had invaded was counted under a phase-contrast microscope (FIG. 3). […]

For a further assay, the system named is HT-1080 cells. Description: In vitro invasion assay of HT-1080 cells in the absence of serum/LPA. It counts as cell-based, human. Here is the method:
HT-1080 cells were cultured under conditions of 37° C. and 5% CO2 in Eagle's MEMI (Nissui) supplemented with a one-hundredth volume of nonessential amino acid solution (GIBCO BRL) and 10% FBS. […] 4 hours later, the cells were fixed, and then the cells that had invaded were counted.

Assay [5] has as its system MM1 cells. Description: Measurement of intracellular cAMP in MM1 cells. It counts as cell-based, rat. Conditions: 25 μM cPA or 10 μM Forskolin, pretreated with 1 mM IBMX. Here is the method: After a certain time period, 10% ice-cooled TCA was added to stop the reaction. The centrifuged supernatant was washed 4 times with water-saturated diethylether to remove TCA, and then placed under nitrogen gas flow at 60° C. to remove the solvent completely. cAMP in the resultant sample was measured using a cyclic AMP [^3H] assay system (Amersham).

Take `CCCCCCCCCCCCCCCCCCCC(=O)OCC1COP(=O)([O-])O1.[Na+]` (stereo not shown) [Ara-cPA]: the “suppressed LPA-induced invasion by” value in the assay on MM1 cells [1] is given as “around 50%”.
`CCCCCCCCCCCC(=O)OCC1COP(=O)([O-])O1.[Na+]` (stereo not shown) [Lau-cPA]: the “suppressed LPA-induced invasion by” value with MM1 cells [1] is recorded as “around 50%”.
As to `CCCCCCCC/C=C\CCCCCCCC(=O)OC[C@@H]1COP(=O)(O)O1` [Ole-cPA], in the assay with MM1 cells [2], the “effect on MM1 cell proliferation (in words)” value (“effect” for short) is given as “proliferation suppressing activity”. In addition, in the assay on MM1 cells [1], the “invasion suppressing action on LPA-induced invasion (in words)” value is recorded as “weak” and the “suppressed LPA-induced invasion by” value is listed as “approximately 60%”.
In the case of `CCCCCC[C@@H]1C[C@@H]1CCCCCCCC(=O)OC[C@@H]1COP(=O)(O)O1` [PHYLPA], in the assay on MM1 cells [1], the “suppressed LPA-induced invasion by” value is reported as “around 50%”.
For the molecule `CCC=CCC=CCC=CCC=CCC=CCCCC(=O)OCC1COP(=O)(O)O1` (stereo not shown) [cPA-12], in the assay with MM1 cells [3], the “suppression of LPA-induced invasion (in words)” value is on record as “not suppressed”. Further, the “suppression of FBS-induced invasion” value with MM1 cells [4] was “approximately 70%”.
In the case of `CCCCCC/C=C\CCCCCCCC(=O)OCC1COP(=O)([O-])O1.[Na+]` (stereo not shown) [ΔPal-cPA], the “effect” value in the assay on MM1 cells [2] is “proliferation suppressing activity”. In addition, in the assay on MM1 cells [1], the “invasion suppressing action on LPA-induced invasion (in words)” value is “weak” and the “suppressed LPA-induced invasion by” value was “around 50%”.
carba-Pal-cPA [cPA-18]: in the assay with MM1 cells [2], the “effect” value was “no effect on MM1 cell proliferation”. Further, the “invasion suppressing activity on HT-1080 cells (in words)” value with HT-1080 cells (10 μM cPA, absence of serum/LPA, 4 hours) is on record as “invasion suppressing activity on the cells at the same strength as or a level stronger than that exhibited by natural cPA”. Besides, the “change of intracellular cAMP concentration (in words)” value with MM1 cells [5] (listed as Carba-Pal-cPA) is on record as “a similar result was obtained”; in the assay with MM1 cells [5] (listed as carba-Pal-cPA) it was “the change of cAMP concentration was not observed”.
For the molecule “lysophosphatidic acid [LPA, reference compound]”, in the assay with HT-1080 cells (25 μM LPA added), the “promotion of HT-1080 cell invasion (in words)” value is “the invasion was no longer promoted”.

The values above are taken from patent US20040214799A1, “Cancerous metastasis inhibitors containing carbacyclic phosphatidic acid derivatives” (priority 2001, published 2004).
